From patent US10806694B2, “Nanoparticles for photodynamic therapy, X-ray induced photodynamic therapy, radiotherapy, radiodynamic therapy, chemotherapy, immunotherapy, and any combination thereof” (The University of Chicago, priority 2014, dated 2020)

Tests used:
[1] = tested on: CT26 cells; test: Calreticulin (CRT) surface expression after PDT (immunogenic cell death); format: cell-based, murine; details: 5 μM
Experimental: CT26 cells were incubated with 5 μM DBC-UiO or H2DBC followed by light irradiation at 0.1 W/cm^2 for 15 min (90 J/cm^2). The apoptosis induced by PDT treatment was determined with the Alexa Fluor 488 Annexin V/dead cell apoptosis kit by flow cytometry. […] Calreticulin (CRT) is a distinct biomarker exposed on the surface of cells undergoing ICD. The CRT expression was determined by flow cytometry and immunofluorescence to assess the ICD induced by DBC-UiO induced PDT. CT26 cells were treated with 5 μM DBC-UiO or H2DBC followed by light irradiation at 0.1 W/cm^2 for 15 min (90 J/cm^2). For flow cytometry analysis, cells were collected and stained with Alexa Fluor 488-CRT antibody and propidium iodide (PI). The fluorescence intensity of stained cells was gated on PI-negative cells. For immunostaining analysis, the cells were stained with AlexaFluor 488-CRT conjugated antibody and DAPI nuclei stain, and observed using confocal laser scanning microscopy (CLSM).

[2] = tested on: human head and neck cancer cells SQ20B; test: In vitro PDT cytotoxicity (MTS); format: cell-based; details: 5-100 μM ligand, 640 nm LED 100 mW/cm^2, 15 min (90 J/cm^2) or 30 min (180 J/cm^2)
Experimental: The cytotoxicity of DBP-UiO and H2DBP was evaluated in human head and neck cancer cells SQ20B which are resistant to cisplatin and conventional radiotherapy. SQ20B cells were seeded on 96-well plates at 2000 cells/well. The cells were treated with DBP-UiO and H2DBP at various ligand concentrations (5, 10, 20, 50 and 100 μM base on ligand concentrations) after a 24-h incubation. A further incubation of 4 h was allowed, followed by replacing the culture medium with 100 μL of fresh DMEM/F12 medium. The cells were irradiated with LED light (640 nm) at 100 mW/cm^2 for 15 min (total light dose 90 J/cm^2) or 30 min (total light dose 180 J/cm^2), respectively. The cells without irradiation treatment served as controls. The cells were further incubated to achieve a total incubation time of 72 h with DBP-UiO or H2DBP. The cell viability was detected by (3-(4,5-dimethylthiazol-2-yl)-5-(3-carboxymethoxyphenyl)-2-(4-sulfophenyl)-2H-tetra-zolium) (MTS) assay (Promega, Madison, Wis., United States of America).
To further confirm the PDT efficacy of DBP-UiO, SQ20B cancer cells were treated with H2DBP or DBP-UiO at various concentrations (5, 10, 20, 50 and 100 μM based on ligand concentrations), the cells were irradiated with LED light (640 nm, 100 mW/cm^2) for 15 min (total light dose 90 J/cm^2) or 30 min (total light dose 180 J/cm^2), respectively.

Compound	surface CRT expression ([1]; light irradiation 90 J/cm^2)	surface CRT expression ([1]; without light irradiation)	PDT efficacy (cell viability) [2]
5, 15-di(p-benzoato)chlorin [H2DBC]	significant amounts of CRT were detected	no surface CRT expression	
O=C(O)c1ccc(-c2c3nc(cc4ccc([nH]4)c(-c4ccc(C(=O)O)cc4)c4nc(cc5ccc2[nH]5)C=C4)C=C3)cc1 [H2DBP, 5,15-di(p-benzoato)porphyrin]			moderate PDT efficacy only at 20 μM dose with 30 min light irradiation
